From ChEMBL document CHEMBL1201862, “PubChem BioAssay data set” (2004) come the findings set out here.

The target in experiment [1] is T1, Tyrosyl-DNA phosphodiesterase 2 (Homo sapiens, UniProt O95551).
T1 sequence (O95551 whole entry): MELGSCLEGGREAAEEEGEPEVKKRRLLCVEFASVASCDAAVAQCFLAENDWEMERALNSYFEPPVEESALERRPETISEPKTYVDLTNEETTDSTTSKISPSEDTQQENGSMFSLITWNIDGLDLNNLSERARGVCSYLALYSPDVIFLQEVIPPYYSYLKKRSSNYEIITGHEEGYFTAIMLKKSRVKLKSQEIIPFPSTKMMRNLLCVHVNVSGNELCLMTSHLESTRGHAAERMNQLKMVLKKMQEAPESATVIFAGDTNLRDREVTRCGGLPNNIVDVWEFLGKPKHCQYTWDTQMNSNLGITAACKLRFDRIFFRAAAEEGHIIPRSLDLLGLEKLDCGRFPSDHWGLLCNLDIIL
The experiment is described as follows: potency against TDP2 phosphodiesterase activity – biochemical, epi absorbance, IC50, dose response (AID 743297).

Experiment [2] addresses T2, Serine/threonine-protein kinase TBK1 (Homo sapiens, UniProt Q9UHD2).
T2 sequence (Q9UHD2 whole entry): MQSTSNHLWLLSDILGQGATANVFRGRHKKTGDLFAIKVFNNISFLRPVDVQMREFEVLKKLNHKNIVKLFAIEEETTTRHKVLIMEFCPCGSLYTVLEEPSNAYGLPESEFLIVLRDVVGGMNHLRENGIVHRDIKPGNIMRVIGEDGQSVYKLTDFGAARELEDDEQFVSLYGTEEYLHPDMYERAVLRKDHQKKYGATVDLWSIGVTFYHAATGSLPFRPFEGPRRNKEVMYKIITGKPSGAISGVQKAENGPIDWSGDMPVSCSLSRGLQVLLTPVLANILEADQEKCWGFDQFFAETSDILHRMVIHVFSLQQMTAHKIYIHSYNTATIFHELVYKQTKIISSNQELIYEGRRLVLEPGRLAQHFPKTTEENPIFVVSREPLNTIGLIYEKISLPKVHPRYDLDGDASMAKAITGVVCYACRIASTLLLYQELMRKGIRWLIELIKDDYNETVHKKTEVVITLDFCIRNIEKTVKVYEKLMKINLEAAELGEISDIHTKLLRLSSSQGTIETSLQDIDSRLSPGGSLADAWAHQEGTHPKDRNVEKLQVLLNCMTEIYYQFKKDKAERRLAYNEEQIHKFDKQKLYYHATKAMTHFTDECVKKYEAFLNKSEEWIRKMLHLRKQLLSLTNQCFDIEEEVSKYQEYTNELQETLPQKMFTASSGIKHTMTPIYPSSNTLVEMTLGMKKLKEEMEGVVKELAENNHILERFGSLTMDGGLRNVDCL
Kind of experiment: Navigating the Kinome. Panel member name: TBK1. The format is functional.

The next experiment concerns the target T3, Activin receptor type-1 (Homo sapiens, UniProt Q04771).
T3 sequence (Q04771 whole entry): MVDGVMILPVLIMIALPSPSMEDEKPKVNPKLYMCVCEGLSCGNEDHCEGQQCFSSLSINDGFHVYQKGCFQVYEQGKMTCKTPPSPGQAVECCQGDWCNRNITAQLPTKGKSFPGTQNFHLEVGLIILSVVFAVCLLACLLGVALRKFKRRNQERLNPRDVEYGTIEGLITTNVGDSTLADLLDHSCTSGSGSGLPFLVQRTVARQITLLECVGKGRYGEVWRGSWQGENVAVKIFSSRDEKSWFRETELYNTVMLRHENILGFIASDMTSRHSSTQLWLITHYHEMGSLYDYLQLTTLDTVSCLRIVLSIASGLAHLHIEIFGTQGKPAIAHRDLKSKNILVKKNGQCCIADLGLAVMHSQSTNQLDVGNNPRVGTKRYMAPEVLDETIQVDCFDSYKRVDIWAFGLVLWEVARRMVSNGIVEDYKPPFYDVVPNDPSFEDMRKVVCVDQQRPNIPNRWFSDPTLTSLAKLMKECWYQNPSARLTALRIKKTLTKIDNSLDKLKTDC
The experiment is described as follows: Navigating the Kinome. Panel member name: ACVR1. The format is functional.

For experiment [3], the target named is Mitogen-activated protein kinase 8 (Homo sapiens, UniProt P45983). It is filed as functional.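 Note: value comes from one member of a kinome-wide kinase profiling panel.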
The target of experiment [4] is Fibroblast growth factor receptor 1 (Homo sapiens, UniProt P11362). It is filed as functional.
Experiment [5] concerns the target T4, Mitogen-activated protein kinase kinase kinase kinase 2 (Homo sapiens, UniProt Q12851).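 Note: measured as one member of a kinome-wide kinase panel, with MAP4K2 as the panel entry.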
T4 sequence (Q12851 whole entry): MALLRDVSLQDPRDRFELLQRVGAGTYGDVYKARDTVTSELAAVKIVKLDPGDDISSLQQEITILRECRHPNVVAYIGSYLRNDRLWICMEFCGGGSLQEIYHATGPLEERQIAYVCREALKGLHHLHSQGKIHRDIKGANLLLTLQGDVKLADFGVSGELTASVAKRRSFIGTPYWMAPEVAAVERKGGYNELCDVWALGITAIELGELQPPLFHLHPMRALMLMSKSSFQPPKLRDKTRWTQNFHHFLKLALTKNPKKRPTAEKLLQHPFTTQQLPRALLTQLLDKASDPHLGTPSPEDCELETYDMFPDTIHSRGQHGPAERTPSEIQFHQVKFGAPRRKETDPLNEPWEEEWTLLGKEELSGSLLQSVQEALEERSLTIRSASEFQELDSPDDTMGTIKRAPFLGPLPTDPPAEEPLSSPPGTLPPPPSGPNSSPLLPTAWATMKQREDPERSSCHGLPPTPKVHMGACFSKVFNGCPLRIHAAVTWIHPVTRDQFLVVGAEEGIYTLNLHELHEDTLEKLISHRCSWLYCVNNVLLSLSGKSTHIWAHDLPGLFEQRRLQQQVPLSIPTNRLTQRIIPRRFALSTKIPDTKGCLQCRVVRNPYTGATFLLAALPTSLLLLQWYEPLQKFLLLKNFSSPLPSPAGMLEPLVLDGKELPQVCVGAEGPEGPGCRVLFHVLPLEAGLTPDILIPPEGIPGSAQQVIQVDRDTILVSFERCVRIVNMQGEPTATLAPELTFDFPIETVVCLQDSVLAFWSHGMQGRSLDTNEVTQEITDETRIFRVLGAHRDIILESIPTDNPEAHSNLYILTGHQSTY
It is filed as functional.

The target of experiment [6] is Vascular endothelial growth factor receptor 2 (Homo sapiens, UniProt P35968). It is filed as functional.
The target in experiment [7] is Rho-associated protein kinase 1 (Homo sapiens, UniProt Q13464). The format is functional.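 Note: measured within a broad kinome-wide panel profiling many kinases.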
The target of experiment [8] is Leukocyte tyrosine kinase receptor (Homo sapiens, UniProt P29376). The experiment is described as follows: Navigating the Kinome. Panel member name: LTK. It is filed as functional.

The source made the active and inactive calls.

Mitogen-activated protein kinase 8, sequence (P45983 whole entry): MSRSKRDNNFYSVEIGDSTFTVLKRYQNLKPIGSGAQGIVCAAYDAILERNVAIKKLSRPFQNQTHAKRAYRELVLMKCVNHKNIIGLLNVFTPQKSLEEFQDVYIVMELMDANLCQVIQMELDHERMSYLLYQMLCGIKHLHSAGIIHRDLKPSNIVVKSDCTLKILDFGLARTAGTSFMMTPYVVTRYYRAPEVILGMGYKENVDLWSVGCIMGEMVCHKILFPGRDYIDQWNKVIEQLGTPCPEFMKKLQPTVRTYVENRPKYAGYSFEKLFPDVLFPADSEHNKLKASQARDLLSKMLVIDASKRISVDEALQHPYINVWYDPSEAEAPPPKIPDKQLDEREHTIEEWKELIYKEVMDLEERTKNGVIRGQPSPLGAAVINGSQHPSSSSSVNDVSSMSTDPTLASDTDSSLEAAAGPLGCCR
Vascular endothelial growth factor receptor 2, sequence (P35968 whole entry): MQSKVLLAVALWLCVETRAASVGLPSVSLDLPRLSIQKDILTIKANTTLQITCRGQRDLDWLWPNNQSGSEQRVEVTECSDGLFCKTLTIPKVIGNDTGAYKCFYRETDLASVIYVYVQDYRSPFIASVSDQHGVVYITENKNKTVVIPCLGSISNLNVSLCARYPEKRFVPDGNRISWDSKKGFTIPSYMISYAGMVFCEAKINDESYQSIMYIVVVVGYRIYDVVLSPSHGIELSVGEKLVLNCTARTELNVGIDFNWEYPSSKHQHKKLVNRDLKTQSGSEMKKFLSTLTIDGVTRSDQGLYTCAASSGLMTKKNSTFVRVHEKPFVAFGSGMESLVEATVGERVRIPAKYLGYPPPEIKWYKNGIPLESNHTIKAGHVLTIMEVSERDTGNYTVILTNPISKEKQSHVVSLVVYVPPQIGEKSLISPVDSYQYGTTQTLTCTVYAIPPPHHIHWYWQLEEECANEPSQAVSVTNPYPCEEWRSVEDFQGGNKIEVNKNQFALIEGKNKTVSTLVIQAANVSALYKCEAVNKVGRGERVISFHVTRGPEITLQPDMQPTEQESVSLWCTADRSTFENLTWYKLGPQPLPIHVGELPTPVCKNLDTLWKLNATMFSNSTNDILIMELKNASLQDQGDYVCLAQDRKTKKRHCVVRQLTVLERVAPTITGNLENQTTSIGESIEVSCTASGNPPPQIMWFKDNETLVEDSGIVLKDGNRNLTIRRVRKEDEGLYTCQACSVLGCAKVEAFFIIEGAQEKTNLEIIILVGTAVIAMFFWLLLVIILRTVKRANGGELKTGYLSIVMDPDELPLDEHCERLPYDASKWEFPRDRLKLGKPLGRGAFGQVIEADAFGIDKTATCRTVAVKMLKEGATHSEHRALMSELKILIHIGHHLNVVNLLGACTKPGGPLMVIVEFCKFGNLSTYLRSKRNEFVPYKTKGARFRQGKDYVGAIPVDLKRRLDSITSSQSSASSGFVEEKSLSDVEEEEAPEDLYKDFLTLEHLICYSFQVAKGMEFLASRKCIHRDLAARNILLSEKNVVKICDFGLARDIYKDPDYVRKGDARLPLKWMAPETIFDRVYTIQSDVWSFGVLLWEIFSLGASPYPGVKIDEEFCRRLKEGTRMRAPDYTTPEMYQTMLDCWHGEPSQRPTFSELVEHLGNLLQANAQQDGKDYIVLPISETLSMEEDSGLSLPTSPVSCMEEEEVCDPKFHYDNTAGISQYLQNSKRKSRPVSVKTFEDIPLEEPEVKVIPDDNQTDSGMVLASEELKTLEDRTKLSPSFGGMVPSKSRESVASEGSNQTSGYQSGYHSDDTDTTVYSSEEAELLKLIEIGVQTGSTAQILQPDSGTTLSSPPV
Rho-associated protein kinase 1, sequence (Q13464 whole entry): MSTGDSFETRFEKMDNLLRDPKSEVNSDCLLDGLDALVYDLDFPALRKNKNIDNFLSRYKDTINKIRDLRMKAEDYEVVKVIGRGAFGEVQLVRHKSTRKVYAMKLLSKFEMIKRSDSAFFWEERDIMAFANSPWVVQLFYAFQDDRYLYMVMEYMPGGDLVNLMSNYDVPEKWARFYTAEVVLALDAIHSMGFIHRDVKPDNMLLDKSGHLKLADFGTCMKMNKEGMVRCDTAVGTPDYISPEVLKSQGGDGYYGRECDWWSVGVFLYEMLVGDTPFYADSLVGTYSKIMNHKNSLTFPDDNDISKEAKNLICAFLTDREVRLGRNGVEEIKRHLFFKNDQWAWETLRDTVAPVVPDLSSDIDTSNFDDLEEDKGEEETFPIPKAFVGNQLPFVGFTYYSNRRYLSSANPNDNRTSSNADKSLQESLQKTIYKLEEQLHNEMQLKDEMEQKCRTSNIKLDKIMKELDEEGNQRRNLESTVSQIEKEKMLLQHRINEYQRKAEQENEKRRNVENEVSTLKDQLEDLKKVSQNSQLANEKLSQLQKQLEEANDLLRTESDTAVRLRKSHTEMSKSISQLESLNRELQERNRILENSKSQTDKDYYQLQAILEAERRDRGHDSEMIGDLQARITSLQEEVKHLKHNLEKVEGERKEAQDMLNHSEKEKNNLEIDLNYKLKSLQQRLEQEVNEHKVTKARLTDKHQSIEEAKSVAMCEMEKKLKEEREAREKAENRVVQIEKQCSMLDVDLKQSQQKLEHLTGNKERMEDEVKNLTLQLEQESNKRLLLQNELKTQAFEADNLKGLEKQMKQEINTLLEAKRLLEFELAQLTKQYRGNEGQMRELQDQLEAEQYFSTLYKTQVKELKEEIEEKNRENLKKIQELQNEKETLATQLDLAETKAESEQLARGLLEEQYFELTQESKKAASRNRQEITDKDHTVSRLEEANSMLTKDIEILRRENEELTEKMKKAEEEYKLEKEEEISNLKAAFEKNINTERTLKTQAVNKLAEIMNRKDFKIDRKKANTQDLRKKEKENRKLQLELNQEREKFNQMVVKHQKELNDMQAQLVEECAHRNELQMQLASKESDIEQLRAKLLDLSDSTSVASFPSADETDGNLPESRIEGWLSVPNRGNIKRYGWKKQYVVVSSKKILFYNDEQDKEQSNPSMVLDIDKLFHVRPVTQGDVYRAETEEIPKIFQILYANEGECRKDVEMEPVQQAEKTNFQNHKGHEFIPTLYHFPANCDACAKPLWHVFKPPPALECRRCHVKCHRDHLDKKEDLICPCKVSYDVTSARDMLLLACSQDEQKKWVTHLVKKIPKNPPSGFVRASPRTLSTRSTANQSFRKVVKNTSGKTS
Fibroblast growth factor receptor 1, sequence (P11362 whole entry): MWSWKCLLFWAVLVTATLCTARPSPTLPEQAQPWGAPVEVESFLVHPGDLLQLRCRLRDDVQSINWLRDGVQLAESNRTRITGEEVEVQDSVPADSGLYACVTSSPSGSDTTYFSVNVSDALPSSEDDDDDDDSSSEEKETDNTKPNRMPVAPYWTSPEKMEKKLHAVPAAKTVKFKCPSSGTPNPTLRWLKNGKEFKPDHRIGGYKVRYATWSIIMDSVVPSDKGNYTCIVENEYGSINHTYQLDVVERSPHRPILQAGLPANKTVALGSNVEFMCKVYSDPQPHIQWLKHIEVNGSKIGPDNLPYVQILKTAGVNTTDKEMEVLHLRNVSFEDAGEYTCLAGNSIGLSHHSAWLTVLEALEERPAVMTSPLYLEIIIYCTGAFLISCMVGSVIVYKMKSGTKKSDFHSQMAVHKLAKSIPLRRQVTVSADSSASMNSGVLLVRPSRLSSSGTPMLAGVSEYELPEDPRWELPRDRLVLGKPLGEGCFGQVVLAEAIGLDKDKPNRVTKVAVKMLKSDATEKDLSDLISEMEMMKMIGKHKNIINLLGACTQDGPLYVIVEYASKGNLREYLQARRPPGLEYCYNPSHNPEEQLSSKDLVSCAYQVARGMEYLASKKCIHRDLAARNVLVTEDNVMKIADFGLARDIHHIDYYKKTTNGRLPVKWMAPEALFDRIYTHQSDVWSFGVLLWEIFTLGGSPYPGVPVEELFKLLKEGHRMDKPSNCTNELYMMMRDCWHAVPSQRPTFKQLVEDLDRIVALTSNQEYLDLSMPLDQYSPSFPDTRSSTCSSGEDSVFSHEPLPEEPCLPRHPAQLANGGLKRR
Leukocyte tyrosine kinase receptor, sequence (P29376 whole entry): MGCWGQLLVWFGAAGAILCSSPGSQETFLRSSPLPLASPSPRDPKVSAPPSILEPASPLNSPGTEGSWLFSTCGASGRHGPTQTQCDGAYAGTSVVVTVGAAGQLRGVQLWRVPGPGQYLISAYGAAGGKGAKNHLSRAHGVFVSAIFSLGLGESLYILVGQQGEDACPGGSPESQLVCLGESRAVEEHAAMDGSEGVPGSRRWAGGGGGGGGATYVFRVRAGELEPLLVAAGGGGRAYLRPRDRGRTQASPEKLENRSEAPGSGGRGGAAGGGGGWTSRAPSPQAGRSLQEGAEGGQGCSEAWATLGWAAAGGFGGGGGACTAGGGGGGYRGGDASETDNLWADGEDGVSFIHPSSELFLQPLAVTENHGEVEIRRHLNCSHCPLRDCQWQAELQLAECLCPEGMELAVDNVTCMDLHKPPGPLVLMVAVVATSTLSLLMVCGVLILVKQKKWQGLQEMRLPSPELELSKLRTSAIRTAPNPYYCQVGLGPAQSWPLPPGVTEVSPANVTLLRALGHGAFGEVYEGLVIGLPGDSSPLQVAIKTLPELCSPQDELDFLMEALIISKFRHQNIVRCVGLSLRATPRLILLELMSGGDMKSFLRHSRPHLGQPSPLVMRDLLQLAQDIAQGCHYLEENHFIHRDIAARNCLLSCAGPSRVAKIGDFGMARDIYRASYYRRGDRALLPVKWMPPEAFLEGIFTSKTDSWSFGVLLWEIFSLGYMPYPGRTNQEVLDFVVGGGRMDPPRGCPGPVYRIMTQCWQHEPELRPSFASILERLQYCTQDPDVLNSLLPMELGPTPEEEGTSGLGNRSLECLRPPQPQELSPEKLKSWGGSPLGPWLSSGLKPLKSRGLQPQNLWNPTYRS

A word on the IC50: it is the concentration that gives 50% inhibition. With `O=C(COC(=O)c1ccc([N+](=O)[O-])s1)Nc1ccc(F)cc1`, the IC50 in [1] is 64200 nM (inactive).

As usually defined, the Ki is the dissociation constant of the complex between target and ligand, obtained from inhibition or displacement. As for `COc1cccc(CNC(=O)c2cnc(-c3ccncc3)nc2)c1`, the Ki was > 3160 nM (inactive) in experiment [2]; > 3980 nM (inactive) at Activin receptor type-1; > 5010 nM (inactive) in experiment [3]; > 3980 nM (inactive) in experiment [4]; > 2510 nM (inactive) in experiment [5]; > 2510 nM (inactive) in experiment [6]. Moreover, the figures for the Ki in [7] and in experiment [8] were 25.1 nM (active) and > 2510 nM (inactive), respectively.

As to `CCN(CC)CCCC(C)n1c2nc(=O)[nH]c(=O)c-2nc2cc(Cl)ccc21` (stereo unspecified), the IC50 in [1] was 10500 nM (inactive).

As usually defined, the pKi is the negative decadic logarithm of the Ki, by convention in mol/L. As for `OC1CCC(Nc2nc(Cl)cc(-c3c[nH]c4ncccc34)n2)CC1` (stereo unspecified), the Ki in experiment [2] is 1000 nM (active); at Activin receptor type-1, 1260 nM (active); in experiment [3] it was 251 nM (active); in [4], 2000 nM (active); in experiment [5], 39.8 nM (active); in experiment [6], 251 nM (active). Besides, the results for the Ki in experiment [7] and in experiment [8] were 7.94 nM (active) and 251 nM (active), respectively. Moreover, the pKi amounted to 6 in [2]; 5.9 on Activin receptor type-1; 6.6 in experiment [3]; 5.7 in experiment [4]; 7.4 in experiment [5]; 6.6 in experiment [6]. Moreover, the pKi was 8.1 in experiment [7] and 6.6 in experiment [8].
